Experimental data from patent US20120291159A1, “Azoline Compounds for Combating Invertebrate Pests” (BASF SE, priority 2009, published 2012).
Counter-ions that a name gives are not always drawn.

Key:
Type in all cases: in vivo
[1] = test system: Boll Weevil (Anthonomus grandis); assay: Boll weevil microtiter diet test (B.11); details: 120 h, egg and larval mortality after 5 days, read-out: mortality in comparison with untreated controls
Procedure: B.11 Boll Weevil (Anthonomus grandis)
For evaluating control of boll weevil (Anthonomus grandis) the test unit consisted of 24-well-microtiter plates containing an insect diet and 20-30 A. grandis eggs.
The compounds were formulated using a solution containing 75% v/v water and 25% v/v DMSO. Different concentrations of formulated compounds were sprayed onto the insect diet at 20 μl, using a custom built micro atomizer, at two replications.
After application, microtiter plates were incubated at about 23±1° C. and about 50±5% relative humidity for 5 days. Egg and larval mortality was then visually assessed.

[2] = test system: Vetch Aphid (Megoura viciae); assay: Vetch aphid leaf disk microtiter test (B.9); details: foliar, 120 h, adult aphids on broad bean leaf disks, 5 days, read-out: mortality in comparison with untreated controls
Procedure: B.9 Vetch Aphid (Megoura viciae)
For evaluating control of vetch aphid (Megoura viciae) through contact or systemic means the test unit consisted of 24-well-microtiter plates containing broad bean leaf disks.
The compounds were formulated using a solution containing 75% v/v water and 25% v/v DMSO. Different concentrations of formulated compounds were sprayed onto the leaf disks at 2.5 μl, using a custom built micro atomizer, at two replications.
After application, the leaf disks were air-dried and 5-8 adult aphids placed on the leaf disks inside the microtiter plate wells. The aphids were then allowed to suck on the treated leaf disks and incubated at about 23±1° C. and about 50±5% relative humidity for 5 days. Aphid mortality and fecundity was then visually assessed.

[3] = test system: Mediterranean Fruitfly (Ceratitis capitata); assay: Mediterranean fruitfly microtiter diet test (B.4); details: 120 h, egg and larval mortality after 5 days, read-out: mortality in comparison with untreated controls
Procedure: B.4 Mediterranean Fruitfly (Ceratitis capitata)
For evaluating control of Mediterranean fruitfly (Ceratitis capitata) the test unit consisted of microtiter plates containing an insect diet and 50-80 C. capitata eggs. The compounds were formulated using a solution containing 75% v/v water and 25% v/v DMSO. Different concentrations of formulated compounds were sprayed onto the insect diet at 5 μl, using a custom built micro atomizer, at two replications. After application, microtiter plates were incubated at about 28±1° C. and about 80±5% relative humidity for 5 days. Egg and larval mortality was then visually assessed.

[4] = test system: Tobacco Budworm (Heliothis virescens); assay: Tobacco budworm cotton plant spray test (B.10); details: 2500 ppm; larvae on sprayed cotton, 4 days after treatment
Procedure: B.10 Tobacco Budworm (Heliothis virescens) I
(§1) The active compounds were formulated in cyclohexanone as a 10,000 ppm solution supplied in tubes. The tubes were inserted into an automated electrostatic sprayer equipped with an atomizing nozzle and they served as stock solutions for which lower dilutions were made in 50% acetone:50% water (v/v). A nonionic surfactant (Kinetic®) was included in the solution at a volume of 0.01% (v/v).
Cotton plants were grown 2 plants to a pot and selected for treatment at the cotyledon stage. Test solutions were sprayed onto the foliage by an automated electrostatic plant sprayer equipped with an atomizing spray nozzle. The plants were dried in the sprayer fume hood and then removed from the sprayer. Each pot was placed into perforated plastic bags with a zip closure. About 10 to 11 budworm larvae were placed into the bag and the bags zipped closed. Test plants were maintained in a growth room at about 25° C. and about 20-40% relative humidity for 4 days, avoiding direct exposure to fluorescent light (24 hour photoperiod) to prevent trapping of heat inside the bags. Mortality and reduced feeding were assessed 4 days after treatment, compared to untreated control plants.

[5] = test system: Silverleaf Whitefly (Bemisia argentifoli); assay: Silverleaf whitefly cotton plant spray test (B.6); details: 300 ppm; whitefly adults on sprayed cotton, 3 days after treatment
Text: B.6 Silverleaf Whitefly (Bemisia argentifoli)
as §1
Cotton plants at the cotyledon stage (one plant per pot) were sprayed by an automated electrostatic plant sprayer equipped with an atomizing spray nozzle. The plants were dried in the sprayer fume hood and then removed from the sprayer. Each pot was placed into a plastic cup and about 10 to 12 whitefly adults (approximately 3-5 days old) were introduced. The insects were collected using an aspirator and a nontoxic Tygon® tubing connected to a barrier pipette tip. The tip, containing the collected insects, was then gently inserted into the soil containing the treated plant, allowing insects to crawl out of the tip to reach the foliage for feeding. Cups were covered with a reusable screened lid. […] Mortality was assessed 3 days after treatment, compared to untreated control plants.

[6] = test system: Cowpea Aphid (Aphis craccivora); assay: Cowpea aphid spray test on potted cowpea plants (B.2); details: 100 ppm; sprayed cowpea plants; assessed after 24, 72 and 120 hours
Procedure: If not otherwise specified the test solutions were prepared as follow:
The active compound was dissolved at the desired concentration in a mixture of 1:1 (vol:vol) distilled water:acteon. The test solution was prepared the day it was used and in general at concentrations of […] (wt/vol).
B.2 Cowpea Aphid (Aphis craccivora)
Potted cowpea plants colonized with approximately 100-150 aphids of various stages were sprayed after the pest population has been recorded. Population reduction was assessed after 24, 72, and 120 hours.

[7] = test system: Orchid Thrips (Dichromothrips corbetti); assay: Orchid thrips floral-immersion test (B.5); details: 500 ppm, adult thrips, after 4 days
Procedure: B.5 Orchid Thrips (Dichromothrips corbetti)
Dichromothrips corbetti adults used for bioassay are obtained from a colony maintained continuously under laboratory conditions. […]
Thrips potency of each compound is evaluated by using a floral-immersion technique. Plastic petri dishes are used as test arenas. All petals of individual, intact orchid flowers are dipped into treatment solution and allowed to dry. Treated flowers are placed into individual petri dishes along with 10-15 adult thrips. The petri dishes are then covered with lids. All test arenas are held under continuous light and a temperature of about 28° C. for duration of the assay. After 4 days, the numbers of live thrips are counted on each flower, and along inner walls of each petri dish. The level of thrips mortality is extrapolated from pre-treatment thrips numbers.

Structure (SMILES) | mortality at 2500 ppm [1] [%] | mortality at 2500 ppm [2] [%] | mortality at 2500 ppm [3] [%] | further results
CCC(=O)NCc1cccc(C2=NOC(c3cc(Cl)cc(Cl)c3)(C(F)(F)F)C2)c1 (centres unmarked) [compound 3-2, N-{3-[5-(3,5-dichloro-phenyl)-5-trifluoromethyl-4,5-dihydro-isoxazol-3-yl]-benzyl}-propionamide] | ≥ 75 | ≥ 75 | ≥ 75 | –
[O-][S+](c1cccc(C2=NOC(c3cc(Cl)cc(Cl)c3)(C(F)(F)F)C2)c1)C(F)(F)F (centres unmarked) [compound 6-2] | – | – | – | mortality in comparison with untreated controls [4]: at least 75%
CCCC(=O)OCc1cccc(C2=NOC(c3cc(Cl)cc(Cl)c3)(C(F)(F)F)C2)c1 (centres unmarked) [compound 3-9] | – | – | – | mortality in comparison with untreated controls [5]: at least 75%
CN1CCC(Oc2cccc(C3=NOC(c4cc(Cl)cc(Cl)c4)(C(F)(F)F)C3)c2)C1=O (centres unmarked) [compound 5-1] | – | – | – | mortality in comparison with untreated controls [6]: at least 75%
CCCC(=O)NCc1cccc(C2=NOC(c3cc(Cl)cc(Cl)c3)(C(F)(F)F)C2)c1 (centres unmarked) [compound 3-5, N-{3-[5-(3,5-dichloro-phenyl)-5-trifluoromethyl-4,5-dihydro-isoxazol-3-yl]-benzyl}-butyramide] | ≥ 75 | ≥ 75 | ≥ 75 | –
CC(=O)NCc1cccc(C2=NOC(c3cc(Cl)cc(Cl)c3)(C(F)(F)F)C2)c1 (centres unmarked) [compound 3-3, N-{3-[5-(3,5-dichloro-phenyl)-5-trifluoromethyl-4,5-dihydro-isoxazol-3-yl]-benzyl}-acetamide] | ≥ 75 | ≥ 75 | ≥ 75 | –
O=C(NCC(F)(F)F)c1cc(C2=NOC(c3cc(Cl)cc(Cl)c3)(C(F)(F)F)C2)ccn1 (centres unmarked) [compound 2-3] | – | – | – | mortality in comparison with untreated controls [7]: at least 75%
NCc1cccc(C2=NOC(c3cc(Cl)cc(Cl)c3)(C(F)(F)F)C2)c1 (centres unmarked) [compound 3-1, 3-[5-(3,5-dichloro-phenyl)-5-trifluoromethyl-4,5-dihydro-isoxazol-3-yl]-benzylamine hydrochloride] | ≥ 75 | ≥ 75 | ≥ 75 | –
CSCC(=O)NCc1cccc(C2=NOC(c3cc(Cl)cc(Cl)c3)(C(F)(F)F)C2)c1 (centres unmarked) [compound 3-4, N-{3-[5-(3,5-dichloro-phenyl)-5-trifluoromethyl-4,5-dihydro-isoxazol-3-yl]-benzyl}-2-methylsulfanyl-acetamide] | – | – | ≥ 75 | –
